In general, IC50 refers to the concentration needed to halve the response being measured. A higher IC50 goes with a need for much substance.

MTP, sequence (P55157 19-894, species assumed): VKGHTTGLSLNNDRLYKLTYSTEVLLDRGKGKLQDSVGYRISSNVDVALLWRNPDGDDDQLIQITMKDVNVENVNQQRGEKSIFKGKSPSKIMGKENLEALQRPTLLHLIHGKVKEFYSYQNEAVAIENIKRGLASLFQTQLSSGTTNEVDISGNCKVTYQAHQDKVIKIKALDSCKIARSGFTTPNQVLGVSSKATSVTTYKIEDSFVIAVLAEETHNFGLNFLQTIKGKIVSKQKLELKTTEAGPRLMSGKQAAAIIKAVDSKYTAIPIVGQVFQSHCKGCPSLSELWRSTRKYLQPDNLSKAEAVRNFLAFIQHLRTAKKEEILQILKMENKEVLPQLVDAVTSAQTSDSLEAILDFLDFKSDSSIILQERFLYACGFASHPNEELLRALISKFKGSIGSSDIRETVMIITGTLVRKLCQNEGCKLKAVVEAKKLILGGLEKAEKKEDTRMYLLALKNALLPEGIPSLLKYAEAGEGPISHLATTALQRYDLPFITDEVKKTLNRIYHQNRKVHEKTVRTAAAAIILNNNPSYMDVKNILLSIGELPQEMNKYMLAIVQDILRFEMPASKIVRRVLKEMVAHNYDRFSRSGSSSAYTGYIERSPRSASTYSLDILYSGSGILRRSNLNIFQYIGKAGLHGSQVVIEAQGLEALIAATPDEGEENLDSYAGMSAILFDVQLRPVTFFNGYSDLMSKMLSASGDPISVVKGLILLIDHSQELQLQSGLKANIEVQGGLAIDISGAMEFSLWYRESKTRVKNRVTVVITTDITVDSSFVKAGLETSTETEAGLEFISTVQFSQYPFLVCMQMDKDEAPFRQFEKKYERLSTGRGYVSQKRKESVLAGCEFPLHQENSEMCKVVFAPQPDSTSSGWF
MTP, sequence (P07237 18-508 partner, species assumed): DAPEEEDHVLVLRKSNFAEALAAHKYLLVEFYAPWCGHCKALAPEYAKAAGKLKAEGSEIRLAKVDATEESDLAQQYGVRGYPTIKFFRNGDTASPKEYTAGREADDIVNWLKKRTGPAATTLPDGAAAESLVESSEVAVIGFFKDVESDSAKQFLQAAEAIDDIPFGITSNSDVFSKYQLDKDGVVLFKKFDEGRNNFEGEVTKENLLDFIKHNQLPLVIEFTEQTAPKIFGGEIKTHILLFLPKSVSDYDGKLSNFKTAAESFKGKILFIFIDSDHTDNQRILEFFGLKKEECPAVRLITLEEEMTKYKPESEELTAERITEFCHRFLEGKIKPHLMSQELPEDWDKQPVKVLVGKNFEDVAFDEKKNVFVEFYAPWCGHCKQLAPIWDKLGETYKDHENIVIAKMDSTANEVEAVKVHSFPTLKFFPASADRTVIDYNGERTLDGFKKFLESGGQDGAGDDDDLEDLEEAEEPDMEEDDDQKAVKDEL

This assay concerns the target MTP (Homo sapiens, UniProt P55157). The assay can be described thus: MTP assay (triglyceride transfer from donor to acceptor vesicles). The class given is biochemical. The following applies: MTP activity, percent triglyceride transfer from donor to acceptor vesicles, 37° C. On the procedure: MTP activity was measured using an assay similar to one described by J. R. Wetterau and D. B. Zilversmit in Chemistry and Physics of Lipids, 38, 205-222 (1985). To prepare the donor and acceptor vesicles, the appropriate lipids in chloroform were put into a glass test tube and dried under a stream of nitrogen. A buffer containing 15 mM Tris-HCl pH 7.5, 1 mM EDTA, 40 mM NaCl, 0.02% NaN3 (assay buffer) was added to the dried lipid. The mixture was vortexed briefly and the lipids were then allowed to hydrate for 20 minutes on ice. Vesicles were then prepared by bath sonication (Branson 2200) at room temperature for maximum 15 minutes. Butylated hydroxytoluene was included in all vesicle preparations at a concentration of 0.1%. The lipid transfer assay mixture contained donor vesicles (40 nmol phosphatidylcholine, 7.5 mol % of cardiolipin and 0.25 mol % glycerol tri [1-^14C]-oleate), acceptor vesicles (240 nmol phosphatidylcholine) and 5 mg BSA in a total volume of 675 μl in a 1.5 ml microcentrifuge tube. Test compounds were added dissolved in DMSO (0.13% final concentration). After 5 minutes of pre-incubation at 37° C., the reaction was started by the addition of MTP in 100 μl dialysis buffer. The reaction was stopped by the addition of 400 μl DEAE-52 cellulose pre-equilibrated in 15 mM Tris-HCl pH 7.5, 1 mM EDTA, 0.02% NaN3 (1:1, vol/vol). The mixture was agitated for 4 minutes and centrifuged for 2 minutes at maximum speed in an Eppendorf centrifuge (4° C.) to pellet the DEAE-52-bound donor vesicles. An aliquot of the supernatant containing the acceptor liposomes was counted and the [^14C]-counts were used to calculate the percent triglyceride transfer from donor to acceptor vesicles.
Consider `CCOC(=O)[C@@H](C)NC(=O)[C@@]1(c2ccccc2)CC[C@H](C(=O)N2CCC(NC(=O)c3cccn(C)c3=O)CC2)c2ccccc21` [Co. No. 136], for which the IC50 is 1.09 µM.

As for `CCOC(=O)CN(C)C(=O)[C@@]1(c2ccccc2)CC[C@H](C(=O)N2CCC(NC(=O)c3cccn(C)c3=O)CC2)c2ccccc21` [Co. No. 137], half-maximal inhibition (IC50) was put at 0.474 µM.

With `CCOC(=O)[C@@H](NC(=O)[C@@]1(c2ccccc2)CC[C@H](C(=O)N2CCC(NC(=O)c3cccn(C)c3=O)CC2)c2ccccc21)C(C)C` [Co. No. 139], 0.826 µM corresponded to half-maximal inhibition (IC50). This IC50 is about 1.7-fold higher than that of the molecule before.

Molecule `CCOC(=O)[C@H](NC(=O)[C@@]1(c2ccccc2)CC[C@H](C(=O)N2CCC(NC(=O)c3cccn(C)c3=O)CC2)c2ccccc21)C(C)C` [Co. No. 140] gave an IC50 of 1.09 µM.

As to `CCOC(=O)[C@H](CC(C)C)NC(=O)[C@@]1(c2ccccc2)CC[C@H](C(=O)N2CCC(NC(=O)c3cccn(C)c3=O)CC2)c2ccccc21` [Co. No. 141], 1.86 µM corresponded to half-maximal inhibition (IC50).

For the molecule `CCOC(=O)[C@H](CO)NC(=O)[C@@]1(c2ccccc2)CC[C@H](C(=O)N2CCC(NC(=O)c3cccn(C)c3=O)CC2)c2ccccc21` [Co. No. 142], the concentration for half-maximal inhibition (IC50) is above 10 µM.

`CCOC(=O)C[C@H](NC(=O)[C@@]1(c2ccccc2)CC[C@H](C(=O)N2CCC(NC(=O)c3cccn(C)c3=O)CC2)c2ccccc21)C(=O)OCC` [Co. No. 143] gave an IC50 of 1.92 µM. In other words, the single-digit micromolar range.

Molecule `CCOC(=O)C1CCCCN1C(=O)[C@@]1(c2ccccc2)CC[C@H](C(=O)N2CCC(NC(=O)c3cccn(C)c3=O)CC2)c2ccccc21` (stereo partly drawn) [Co. No. 144] gave an IC50 of 3.83 µM.

As to `COC(=O)CC[C@H](NC(=O)[C@@]1(c2ccccc2)CC[C@H](C(=O)N2CCC(NC(=O)c3cccn(C)c3=O)CC2)c2ccccc21)C(=O)OC` [Co. No. 145], the half-maximal inhibitory concentration (IC50) is 5.38 µM.

For the molecule `CCOC(=O)CC[C@H](NC(=O)[C@@]1(c2ccccc2)CC[C@H](C(=O)N2CCC(NC(=O)c3cccn(C)c3=O)CC2)c2ccccc21)C(=O)OCC` [Co. No. 146], the IC50 is 0.776 µM.

For `CCOC(=O)[C@@H]1CCCN1C(=O)[C@@]1(c2ccccc2)CC[C@H](C(=O)N2CCC(NC(=O)c3cccn(C)c3=O)CC2)c2ccccc21` [Co. No. 149], the IC50 is above 10 µM.

As to `CCOC(=O)[C@H]1CCCN1C(=O)[C@@]1(c2ccccc2)CC[C@H](C(=O)N2CCC(NC(=O)c3cccn(C)c3=O)CC2)c2ccccc21` [Co. No. 150], the IC50 is above 10 µM.

In the case of `COC(=O)[C@@H]1C[C@@H](O)CN1C(=O)[C@@]1(c2ccccc2)CC[C@H](C(=O)N2CCC(NC(=O)c3cccn(C)c3=O)CC2)c2ccccc21` [Co. No. 151], the half-maximal inhibitory concentration (IC50) was above 10 µM.

The molecule `CCOC(=O)[C@H](NC(=O)[C@@]1(c2ccccc2)CC[C@H](C(=O)N2CCC(NC(=O)c3cccn(C)c3=O)CC2)c2ccccc21)c1ccccc1` [Co. No. 152] had an IC50 of 1.63 µM. This counts as single-digit micromolar.

As to `CCOC(=O)[C@@H](NC(=O)[C@@]1(c2ccccc2)CC[C@H](C(=O)N2CCC(NC(=O)c3cccn(C)c3=O)CC2)c2ccccc21)c1ccccc1` [Co. No. 153], the concentration for half-maximal inhibition (IC50) was 1.11 µM.

For `CCOC(=O)[C@H](Cc1ccccc1)NC(=O)[C@@]1(c2ccccc2)CC[C@H](C(=O)N2CCC(NC(=O)c3cccn(C)c3=O)CC2)c2ccccc21` [Co. No. 154], the IC50 is 1.85 µM. This IC50 is about 1.7-fold higher than that of the molecule before.

Turning to `CCOC(=O)[C@@H](Cc1ccccc1)NC(=O)[C@@]1(c2ccccc2)CC[C@H](C(=O)N2CCC(NC(=O)c3cccn(C)c3=O)CC2)c2ccccc21` [Co. No. 155], the half-inhibitory concentration (IC50) is 0.731 µM.

In the case of `CCOC(=O)C(Cc1ccc(O)cc1)NC(=O)[C@@]1(c2ccccc2)CC[C@H](C(=O)N2CCC(NC(=O)c3cccn(C)c3=O)CC2)c2ccccc21` (stereo partly drawn) [Co. No. 156], the half-maximal inhibitory concentration (IC50) was 1.53 µM.

In turn, `CCOC(=O)C(Cc1c[nH]c2ccccc12)NC(=O)[C@@]1(c2ccccc2)CC[C@H](C(=O)N2CCC(NC(=O)c3cccn(C)c3=O)CC2)c2ccccc21` (stereo partly drawn) [Co. No. 157] showed an IC50 of 1.65 µM.

`COC(=O)CNC(=O)[C@@]1(c2ccccc2)CC[C@H](C(=O)N2CCC(NC(=O)c3cccn(C)c3=O)CC2)c2ccccc21` [Co. No. 158] gave an IC50 of 0.847 µM.

With `Cn1cccc(C(=O)NC2CCN(C(=O)C3CC[C@@](C(=O)NCC(=O)OC(C)(C)C)(c4ccccc4)c4ccccc43)CC2)c1=O` (stereo partly drawn) [Co. No. 160], the half-maximal inhibitory concentration (IC50) was 0.366 µM. This IC50 lies about 2.3-fold lower than the previous one.

With `C[C@H](NC(=O)[C@@]1(c2ccccc2)CC[C@H](C(=O)N2CCC(NC(=O)c3cccn(C)c3=O)CC2)c2ccccc21)C(=O)OC(C)(C)C` [Co. No. 161], the concentration for half-maximal inhibition (IC50) is 0.458 µM.

The molecule `C[C@@H](NC(=O)[C@@]1(c2ccccc2)CC[C@H](C(=O)N2CCC(NC(=O)c3cccn(C)c3=O)CC2)c2ccccc21)C(=O)OC(C)(C)C` [Co. No. 162] had an IC50 of 1.79 µM. This IC50 lies about 3.9-fold higher than the previous one.

Turning to `CN(CC(=O)OC(C)(C)C)C(=O)[C@@]1(c2ccccc2)CC[C@H](C(=O)N2CCC(NC(=O)c3cccn(C)c3=O)CC2)c2ccccc21` [Co. No. 163], 1.45 µM corresponded to half-maximal inhibition (IC50).

Consider `CC(C)[C@H](NC(=O)[C@@]1(c2ccccc2)CC[C@H](C(=O)N2CCC(NC(=O)c3cccn(C)c3=O)CC2)c2ccccc21)C(=O)OC(C)(C)C` [Co. No. 165], for which inhibition was half-maximal at 0.506 µM (IC50).

On to `CC(C)[C@@H](NC(=O)[C@@]1(c2ccccc2)CC[C@H](C(=O)N2CCC(NC(=O)c3cccn(C)c3=O)CC2)c2ccccc21)C(=O)OC(C)(C)C` [Co. No. 166], for which the concentration for half-maximal inhibition (IC50) is 0.755 µM.

Consider `CC(C)C[C@H](NC(=O)[C@@]1(c2ccccc2)CC[C@H](C(=O)N2CCC(NC(=O)c3cccn(C)c3=O)CC2)c2ccccc21)C(=O)OC(C)(C)C` [Co. No. 167], for which inhibition was half-maximal at 0.793 µM (IC50).

Turning to `Cn1cccc(C(=O)NC2CCN(C(=O)[C@H]3CC[C@@](C(=O)N[C@@H](COC(C)(C)C)C(=O)OC(C)(C)C)(c4ccccc4)c4ccccc43)CC2)c1=O` [Co. No. 168], the half-inhibitory concentration (IC50) is 0.697 µM.

For `Cn1cccc(C(=O)NC2CCN(C(=O)[C@H]3CC[C@@](C(=O)N[C@@H](CC(=O)OC(C)(C)C)C(=O)OC(C)(C)C)(c4ccccc4)c4ccccc43)CC2)c1=O` [Co. No. 169], inhibition was half-maximal at 1.75 µM (IC50).

For `Cn1cccc(C(=O)NC2CCN(C(=O)[C@H]3CC[C@@](C(=O)N[C@@H](CCC(N)=O)C(=O)OC(C)(C)C)(c4ccccc4)c4ccccc43)CC2)c1=O` [Co. No. 170], the IC50 was above 10 µM.

`Cn1cccc(C(=O)NC2CCN(C(=O)[C@H]3CC[C@@](C(=O)N[C@@H](CCC(=O)OC(C)(C)C)C(=O)OC(C)(C)C)(c4ccccc4)c4ccccc43)CC2)c1=O` [Co. No. 171] showed a half-inhibitory concentration (IC50) of 0.418 µM. That is a sub-micromolar value.

For `Cn1cccc(C(=O)NC2CCN(C(=O)[C@H]3CC[C@@](C(=O)N4CCC[C@H]4C(=O)OC(C)(C)C)(c4ccccc4)c4ccccc43)CC2)c1=O` [Co. No. 173], the IC50 was 3.3 µM.

`Cn1cccc(C(=O)NC2CCN(C(=O)[C@H]3CC[C@@](C(=O)N4CCC[C@@H]4C(=O)OC(C)(C)C)(c4ccccc4)c4ccccc43)CC2)c1=O` [Co. No. 174]: inhibition was half-maximal at 2.73 µM (IC50).

In the case of `Cn1cccc(C(=O)NC2CCN(C(=O)[C@H]3CC[C@@](C(=O)N4C[C@H](OC(C)(C)C)C[C@H]4C(=O)OC(C)(C)C)(c4ccccc4)c4ccccc43)CC2)c1=O` [Co. No. 175], inhibition was half-maximal at 3.72 µM (IC50).

The molecule `Cn1cccc(C(=O)NC2CCN(C(=O)[C@H]3CC[C@@](C(=O)N[C@@H](C(=O)OC(C)(C)C)c4ccccc4)(c4ccccc4)c4ccccc43)CC2)c1=O` [Co. No. 176] gave a half-inhibitory concentration (IC50) of 1.88 µM.

For `Cn1cccc(C(=O)NC2CCN(C(=O)[C@H]3CC[C@@](C(=O)N[C@H](C(=O)OC(C)(C)C)c4ccccc4)(c4ccccc4)c4ccccc43)CC2)c1=O` [Co. No. 177], the half-maximal inhibitory concentration (IC50) is 1.62 µM. This IC50 and that of the molecule before are within 1.5-fold of each other.

Source of the values: US8114880B2, “Piperidine or piperazine substituted tetrahydro-naphthalene-1-carboxylic acid MTP inhibiting compounds” (Janssen Pharmaceutica N.V., priority 2006, dated 2012).
